pIC50: −log10 of the molar value.
Columns and labels:
[1] = test system: SW620 cells (homozygous KRAS-G12V activating mutation); test: Cellular phospho-ERK assay in G12V cell line; assay type: cell-based; settings: Homo sapiens, SW-620, 2 hours compound incubation, ratio of p-ERK vs. total ERK, read-out: SW620 pERK IC50
Method: Procedure for Cellular Phospho-ERK Assay in G12D and G12V Cell Lines
PANC08.13 cells (ATCC® CRL-2551™), containing homozygous KRAS-G12D activating mutation, were cultured in growth medium made of RPMI1640-GlutaMAX™—I (ThermoFisher Scientific 61870) containing 15% heat inactivated fetal bovine serum (ThermoFisher Scientific 10091148)). SW620 cells (ATCC® […]), containing homozygous KRAS-G12V activating mutation, were cultured in growth medium that contains RPMI 1640-GlutaMAX™—I (ThermoFisher Scientific 61870) containing 10% heat inactivated fetal bovine serum (ThermoFisher Scientific 10091148).
Cells for the assay were harvested in growth medium after TrypLE (ThermoFisher scientific 12604021) digestion and were seeded in a 384-well collagen coated cell culture plate (Corning 356702) at a density of 10,000-15,000 cells/20 uL/well, and incubated at 37° C., 5% CO2 overnight. The compound (with 10 mM stock concentration) dose-response titrations were prepared [30 μM final ERK detection assay concentration and 1:3 dilutions, 10-point dose response] and appropriate amounts (270 nL) of test compounds were dispensed in a 384-well intermediate plate using an Echo 550 liquid handler. 30 uL/well of RPMI medium 1640-GlutaMAX™—I was added to the intermediate plate and the contents of the intermediate plate (10 uL/well) were then transferred to the 384-well collagen coated cell culture plate, which was incubated at 37° C., 5% CO2 for 2 hours. After removal of medium from the collagen coated cell culture plate, cells were lysed in lysis buffer from Alpha SureFire® Ultra™ Multiplex p-ERK and total ERK assay kit (PerkinElmer MPSU-PTERK) containing Halt™ Protease and Phosphatase inhibitor cocktail (ThermoFisher Scientific 78446) at room temperature with constant shaking at 300 rpm for 30 minutes. The cell lysates were then transferred to an OptiPlate-384 plate (PerkinElmer 6005620), and the phosphorylation of ERK (p-ERK) and total ERK levels were detected by Alpha SureFire® Ultra™ Multiplex p-EEK kit and total ERK assay kit (PerkinElmer MPSU-PTERK) following the manufacturer's protocol. Assay plates were read on a EnVision Multimode Plate Reader (PerkinElmer), and the ratio of p-ERK vs. total ERK in each well was used as the final readout. Dose response curves were analyzed using a 4-parameter logistic model to calculate IC50 values using Spotfire software.

NRAS = NRAS (Homo sapiens, UniProt P01111); test: SOS-catalyzed nucleotide exchange assay (Procedure A, TR-FRET); assay type: biochemical; settings: 60 min preincubation, SOS + GTP, read-out: NRAS GNE IC50
NRAS, sequence (P01111 with tags, fused parts or gaps): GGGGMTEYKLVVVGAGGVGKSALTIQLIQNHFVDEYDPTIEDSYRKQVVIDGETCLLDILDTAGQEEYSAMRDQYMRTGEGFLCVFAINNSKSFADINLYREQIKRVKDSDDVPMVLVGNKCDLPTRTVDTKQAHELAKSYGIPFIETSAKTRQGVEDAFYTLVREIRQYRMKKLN
In short: (§1)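 Biotinylated WT-sequence HRAS or NRAS (1.25 nM final) loaded with Bodipy-GDP plus Tb-streptavidin, preincubated 60 min with compound (10-point, 3-fold). Exchange started with human SOS (40 nM) and 3 mM GTP, 60 min at room temperature, pH 7.5 Mg buffer. TR-FRET 520/495 ratio normalised to DMSO and saturating inhibitor, four-parameter fit.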

HRAS = HRAS (Homo sapiens, UniProt P01112); test: as above; assay type: biochemical; settings: 60 min preincubation, SOS + GTP, read-out: HRAS GNE IC50
HRAS, sequence (P01112 with tags, fused parts or gaps): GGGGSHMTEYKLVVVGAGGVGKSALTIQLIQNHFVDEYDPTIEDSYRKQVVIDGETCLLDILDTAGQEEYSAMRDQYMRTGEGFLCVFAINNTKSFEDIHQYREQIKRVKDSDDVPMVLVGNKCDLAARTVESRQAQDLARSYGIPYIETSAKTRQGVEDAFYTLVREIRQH
In short: as §1

KRAS-G13D = biological target: T1, KRAS-G13D (Homo sapiens, UniProt P01116, G13D); test: as above; assay type: biochemical; settings: 60 min preincubation, GTP, read-out: KRAS G13D GNE IC50
T1 construct: N-terminal biotin-acceptor peptide […]
T1 sequence (P01116 with tags, fused parts or gaps isoform P01116-2 G13D): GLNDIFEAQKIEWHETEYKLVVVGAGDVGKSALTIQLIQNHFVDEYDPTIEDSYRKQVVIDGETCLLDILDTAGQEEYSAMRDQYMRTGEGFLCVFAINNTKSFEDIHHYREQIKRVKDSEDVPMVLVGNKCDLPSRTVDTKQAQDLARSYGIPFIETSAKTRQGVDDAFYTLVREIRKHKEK
In short: (§2)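 Preformed biotinylated RAS–Bodipy-GDP/Tb-streptavidin complex preincubated with compound 60 min at room temperature, then SOS plus GTP (3 mM final) added. Exchange times: G13D 30 min, G12C/D 60 min, G12V 90 min. Final RAS/SOS: G12C 3 nM/40 nM, G12D 1 nM/40 nM, G12V 1.25 nM/160 nM, G13D 1.25 nM/0 nM. TR-FRET 520/495 ratio, four-parameter fit.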

[2] = biological target: T2, KRAS-G12C (C51S/C80L/C118S) (Homo sapiens, UniProt P01116, C118S/C51S/C80L/G12C); test: as above; assay type: biochemical; settings: 60 min preincubation, SOS + GTP, read-out: KRAS G12C GNE IC50
T2 construct: N-terminal biotin-acceptor peptide […]
T2 sequence (P01116 with tags, fused parts or gaps isoform P01116-2 G12C/C51S/C80L/C118S): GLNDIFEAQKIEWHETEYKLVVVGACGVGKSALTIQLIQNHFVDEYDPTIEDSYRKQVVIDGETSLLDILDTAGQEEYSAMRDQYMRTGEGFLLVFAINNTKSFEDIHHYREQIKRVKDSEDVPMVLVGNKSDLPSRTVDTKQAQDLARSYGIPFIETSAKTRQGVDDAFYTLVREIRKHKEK
In short: as §2

KRAS-G12D = biological target: T3, KRAS-G12D (Homo sapiens, UniProt P01116, G12D); test: as above; assay type: biochemical; settings: 60 min preincubation, SOS + GTP, read-out: KRAS G12D GNE IC50
T3 construct: N-terminal biotin-acceptor peptide […]
T3 sequence (P01116 with tags, fused parts or gaps isoform P01116-2 G12D): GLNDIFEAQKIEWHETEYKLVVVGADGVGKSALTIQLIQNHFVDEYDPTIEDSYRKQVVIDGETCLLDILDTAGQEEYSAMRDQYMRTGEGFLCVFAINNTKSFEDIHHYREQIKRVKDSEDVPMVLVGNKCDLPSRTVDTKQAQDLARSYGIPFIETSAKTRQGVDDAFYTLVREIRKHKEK
In short: as §2

KRAS-G12V = biological target: T4, KRAS-G12V (Homo sapiens, UniProt P01116, G12V); test: as above; assay type: biochemical; settings: 60 min preincubation, SOS + GTP, read-out: KRAS G12V GNE IC50
T4 construct: N-terminal biotin-acceptor peptide […]
T4 sequence (P01116 with tags, fused parts or gaps isoform P01116-2 G12V): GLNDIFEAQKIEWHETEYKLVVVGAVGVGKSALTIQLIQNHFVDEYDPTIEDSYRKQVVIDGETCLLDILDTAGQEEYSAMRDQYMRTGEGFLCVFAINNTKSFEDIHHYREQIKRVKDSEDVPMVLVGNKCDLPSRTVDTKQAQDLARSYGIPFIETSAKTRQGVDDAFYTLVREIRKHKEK
In short: as §2

[3] = test system: PANC08.13 cells (homozygous KRAS-G12D activating mutation); test: Cellular phospho-ERK assay in G12D cell line; assay type: cell-based; settings: Homo sapiens, PANC-08-13, 2 hours compound incubation, ratio of p-ERK vs. total ERK, read-out: PANC 0813 pERK IC50
In short: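 Cells (10,000-15,000/well) were seeded overnight, then treated for 2 h at 37 °C with a 10-point 1:3 titration from 30 μM final. Lysates were assayed by AlphaLISA SureFire Ultra multiplex, with the p-ERK/total-ERK ratio as read-out; IC50 came from a 4-parameter logistic fit.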

Row | SMILES | pIC50 [1] | pIC50 (NRAS) | pIC50 (HRAS) | pIC50 (KRAS-G13D) | pIC50 [2] | pIC50 (KRAS-G12D) | pIC50 (KRAS-G12V) | pIC50 [3]
1 | CC1COCCCN1c1nc(OC[C@@]23CCCN2C[C@H](F)C3)nc2c(F)c(-c3ccc(F)c4sc(N)c(C#N)c34)c(Cl)cc12 (stereo partly drawn) [compound 5, 2-amino-4-(6-chloro-8-fluoro-2-(((2R,7aS)-2-fluorotetrahydro-1H-pyrrolizin-7a(5H)-yl)methoxy)-4-(3-methyl-1,4-oxazepan-4-yl)quinazolin-7-yl)-7-fluorobenzo[b]thio-phene-3-carbonitrile] | 6.92 | < 4.96 | < 4.96 | 7.87 | 7.74 | 7.82 | 8.21 | 6.91
2 | C[C@@H]1CCOCCN1c1nc(OC[C@@]23CCCN2C[C@H](F)C3)nc2c(F)c(-c3ccc(F)c4sc(N)c(C#N)c34)c(Cl)cc12 [compound 7, 2-amino-4-(6-chloro-8-fluoro-2-(((2R,7aS)-2-fluorotetrahydro-1H-pyrrolizin-7a(5H)-yl)methoxy)-4-((R)-5-methyl-1,4-oxazepan-4-yl)quinazolin-7-yl)-7-fluorobenzo[b]thio-phene-3-carbonitrile] | 7.17 | < 4.96 | < 4.96 | 8.07 | 7.88 | 8.04 | 8.22 | 6.72
3 | CC1COCCN(c2nc(OC[C@@]34CCCN3C[C@H](F)C4)nc3c(F)c(-c4ccc(F)c5sc(N)c(C#N)c45)c(Cl)cc23)C1 (stereo partly drawn) [compound 8, 2-amino-4-(6-chloro-8-fluoro-2-(((2R,7aS)-2-fluorotetrahydro-1H-pyrrolizin-7a(5H)-yl)methoxy)-4-(6-methyl-1,4-oxazepan-4-yl)quinazolin-7-yl)-7-fluorobenzo[b]thio-phene-3-carbonitrile] | 6.98 | < 4.96 | < 4.96 | 7.89 | 7.68 | 8.00 | 8.12 | 6.86
4 | CC1CN(c2nc(OC[C@@]34CCCN3C[C@H](F)C4)nc3c(F)c(-c4ccc(F)c5sc(N)c(C#N)c45)c(Cl)cc23)CCCO1 (stereo partly drawn) [compound 9, 2-amino-4-(6-chloro-8-fluoro-2-(((2R,7aS)-2-fluorotetrahydro-1H-pyrrolizin-7a(5H)-yl)methoxy)-4-(2-methyl-1,4-oxazepan-4-yl)quinazolin-7-yl)-7-fluorobenzo[b]thio-phene-3-carbonitrile] | 7.00 | < 4.96 | < 4.96 | 8.06 | 7.64 | 7.61 | 8.21 | 6.81
5 | CC1CCN(c2nc(OC[C@@]34CCCN3C[C@H](F)C4)nc3c(F)c(-c4ccc(F)c5sc(N)c(C#N)c45)c(Cl)cc23)CCO1 (stereo partly drawn) [compound 10, 2-amino-4-(6-chloro-8-fluoro-2-(((2R,7aS)-2-fluorotetrahydro-1H-pyrrolizin-7a(5H)-yl)methoxy)-4-(7-methyl-1,4-oxazepan-4-yl)quinazolin-7-yl)-7-fluorobenzo[b]thio-phene-3-carbonitrile] | 6.27 | < 4.96 | < 4.96 | 6.96 | 7.33 | 6.15 | 7.38 | 5.58
6 | N#Cc1c(N)sc2c(F)ccc(-c3c(Cl)cc4c(N5CCOCC(F)C5)nc(OC[C@@]56CCCN5C[C@H](F)C6)nc4c3F)c12 (stereo partly drawn) [compound 11, 2-amino-4-(6-chloro-8-fluoro-4-(6-fluoro-1,4-oxazepan-4-yl)-2-(((2R,7aS)-2-fluorotetrahydro-1H-pyrrolizin-7a(5H)-yl)methoxy)quinazo-lin-7-yl)-7-fluorobenzo[b]thio-phene-3-carbonitrile] | 7.66 | < 4.96 | < 4.96 | 8.16 | 7.74 | 8.08 | 8.19 | 7.40
7 | N#Cc1c(N)sc2c(F)ccc(-c3c(Cl)cc4c(N5CCOCC(F)(F)C5)nc(OC[C@@]56CCCN5C[C@H](F)C6)nc4c3F)c12 [compound 12, 2-amino-4-(6-chloro-4-(6,6-difluoro-1,4-oxazepan-4-yl)-8-fluoro-2-(((2R,7aS)-2-fluorotetrahydro-1H-pyrrolizin-7a(5H)-yl)methoxy)quinazo-lin-7-yl)-7-fluorobenzo[b]thio-phene-3-carbonitrile] | 7.48 | < 4.96 | < 4.96 | 7.89 | 7.71 | 7.47 | 7.94 | 7.12
8 | CC1(F)COCCN(c2nc(OC[C@@]34CCCN3C[C@H](F)C4)nc3c(F)c(-c4ccc(F)c5sc(N)c(C#N)c45)c(Cl)cc23)C1 (stereo partly drawn) [compound 13, 2-amino-4-(6-chloro-8-fluoro-4-(6-fluoro-6-methyl-1,4-oxazepan-4-yl)-2-(((2R,7aS)-2-fluorotetrahydro-1H-pyrrolizin-7a(5H)-yl)methoxy)quinazo-lin-7-yl)-7-fluorobenzo[b]thio-phene-3-carbonitrile] | 6.82 | < 4.96 | < 4.96 | 7.66 | 7.49 | 7.33 | 7.98 | 6.68
9 | CC(C)(C)NC[C@@]1(COc2nc(N3CCCOCC3)c3cc(Cl)c(-c4ccc(F)c5sc(N)c(C#N)c45)c(F)c3n2)CC1(F)F [compound 25, 2-amino-4-(2-(((R)-1-((tert-butylamino)methyl)-2,2-difluorocyclopropyl)methoxy)-6-chloro-8-fluoro-4-(1,4-oxazepan-4-yl)quinazolin-7-yl)-7-fluorobenzo[b]thiophene-3-carbonitrile] | 6.39 | < 4.96 | < 4.96 | 7.28 | 7.54 | 6.61 | 7.75 | 5.88
10 | CC(C)NC[C@@]1(COc2nc(N3CCCOCC3)c3cc(Cl)c(-c4ccc(F)c5sc(N)c(C#N)c45)c(F)c3n2)CC1(F)F [compound 26, 2-amino-4-(6-chloro-2-(((R)-2,2-difluoro-1-((isopropylamino)meth-yl)cyclopropyl)meth-oxy)-8-fluoro-4-(1,4-oxazepan-4-yl)quinazolin-7-yl)-7-fluorobenzo[b]thiophene-3-carbonitrile] | 6.45 | < 4.96 | < 4.96 | 7.23 | 7.26 | 6.75 | 7.65 | 6.00

— patent US20260083750A1, “SMALL MOLECULE INHIBITORS OF KRAS PROTEINS” (MERCK SHARP & DOHME LLC, priority 2022, published 2026)
